The values that follow come from ChEMBL document CHEMBL5576097, “Synthesis and biological evaluation of novel penindolone derivatives as potential antiproliferative agents against SCLC in vitro” (Bioorg Med Chem Lett, 2024).

Calls of active or inactive are those of the source. The rule behind the calls is not given here.

Usually IC50 stands for the concentration that gives 50% inhibition. Read a low IC50 as greater potency. In general, inhibition refers to the share of the control response that was lost under treatment.

Assay [1] relates to H69AR. In words: Antiproliferative activity against human NCI-H69AR cells by SRB assay. The class given is functional, cell-based. A general note: Sulforhodamine B stains cellular protein and so reports cell mass.
Assay [2] concerns H69AR. In words: Induction of apoptosis in human NCI-H69AR cells assessed as increase in BAX protein expression by Western blot analysis. In kind it is functional, cell-based. As to conditions: dose 0.5-8 µmol/L.
Assay [3] relates to H69AR. Put plainly: Induction of apoptosis in human NCI-H69AR cells assessed as dead cells at 8 micromol/L measured after 48 hrs by Annexin V-FITC/PI staining based flow cytometry analysis (reference value: 0%). The class given is functional. As to conditions: dose 8 µmol/L, at 8 µM. (In general: In flow cytometry, cells or beads pass a laser one at a time.)
Assay [4] deals with H69AR. In words: Inhibition of colony formation in human NCI-H69AR cells. As to conditions: dose 0-8 µM. In kind it is functional, cell-based.
The subject of assay [5] is H69AR. In words: Induction of cell cycle arrest in human NCI-H69AR cells assessed as reduction in number of cells in S phase measured after 24 hrs by flow cytometry analysis. As to conditions: dose 0-8 µM. The class given is functional, cell-based.
Assay [6] deals with H69AR. In words: Induction of apoptosis in human NCI-H69AR cells assessed as increase in cleaved caspase-8 protein expression by Western blot analysis. In kind it is functional, cell-based. As to conditions: dose 0.5-8 µmol/L.
In assay [7] the test system is H69AR. In words: Induction of apoptosis in human NCI-H69AR cells assessed as late apoptotic cells at 2 micromol/L measured after 48 hrs by Annexin V-FITC/PI staining based flow cytometry analysis (reference value: 0.38%). In kind it is functional. As to conditions: dose 2 µmol/L, at 2 µM.
Assay [8] concerns H69AR. In words: Induction of apoptosis in human NCI-H69AR cells assessed as reduction in Bcl-2 protein expression by Western blot analysis. As to conditions: dose 0.5-8 µmol/L. The class given is functional, cell-based. For orientation: In western blotting, separated proteins are transferred to a membrane and probed.
In assay [9] the test system is H69AR. Put plainly: Induction of apoptosis in human NCI-H69AR cells assessed as dead cells at 4 micromol/L measured after 48 hrs by Annexin V-FITC/PI staining based flow cytometry analysis (reference value: 0%). In kind it is functional. As to conditions: dose 4 µmol/L, at 4 µM.
For assay [10], the system named is H69AR. In words: Induction of apoptosis in human NCI-H69AR cells assessed as early apoptotic cells at 2 micromol/L measured after 48 hrs by Annexin V-FITC/PI staining based flow cytometry analysis (reference value: 1.96%). In kind it is functional. As to conditions: dose 2 µmol/L, at 2 µM.
For assay [11], the system named is H69AR. Put plainly: Induction of cell cycle arrest in human NCI-H69AR cells assessed as increase in number of cells in G0/G1 phase at 0 to 8 uM measured after 24 hrs by flow cytometry analysis. As to conditions: dose 0-8 µM. In kind it is functional, cell-based.
In assay [12] the test system is H69AR. In words: Induction of apoptosis in human NCI-H69AR cells assessed as reduction in XIAP protein expression by Western blot analysis. As to conditions: dose 0.5-8 µmol/L. The class given is functional, cell-based.
Assay [13] relates to H69AR. In words: Inhibition of colony formation in human NCI-H69AR cells at 8 uM relative to control. The class given is functional.
The subject of assay [14] is H69AR. In words: Induction of apoptosis in human NCI-H69AR cells assessed as early apoptotic cells at 8 micromol/L measured after 48 hrs by Annexin V-FITC/PI staining based flow cytometry analysis (reference value: 1.96%). The class given is functional. As to conditions: dose 8 µmol/L, at 8 µM.
The subject of assay [15] is A549. Put plainly: Antiproliferative activity against human A549 cells by SRB assay. In kind it is functional, cell-based.
Assay [16] relates to H69AR. In words: Induction of apoptosis in human NCI-H69AR cells assessed as dead cells at 2 micromol/L measured after 48 hrs by Annexin V-FITC/PI staining based flow cytometry analysis (reference value: 0%). The class given is functional. As to conditions: dose 2 µmol/L, at 2 µM.
The test system of assay [17] is H69AR. Put plainly: Induction of apoptosis in human NCI-H69AR cells assessed as live cells at 8 micromol/L measured after 48 hrs by Annexin V-FITC/PI staining based flow cytometry analysis (reference value: 97.7%). In kind it is functional. As to conditions: dose 8 µmol/L, at 8 µM.
In assay [18] the test system is H69AR. Put plainly: Induction of apoptosis in human NCI-H69AR cells assessed as early apoptotic cells at 4 micromol/L measured after 48 hrs by Annexin V-FITC/PI staining based flow cytometry analysis (reference value: 1.96%). The class given is functional. As to conditions: dose 4 µmol/L, at 4 µM.
Assay [19] has as its system H69AR. Put plainly: Induction of apoptosis in human NCI-H69AR cells assessed as late apoptotic cells at 8 micromol/L measured after 48 hrs by Annexin V-FITC/PI staining based flow cytometry analysis (reference value: 0.38%). In kind it is functional. As to conditions: dose 8 µmol/L, at 8 µM.
Assay [20] deals with NCI-H358. In words: Antiproliferative activity against human NCI-H358 cells by SRB assay. The class given is functional, cell-based.
Assay [21] relates to H69AR. Put plainly: Induction of apoptosis in human NCI-H69AR cells assessed as late apoptotic cells at 4 micromol/L measured after 48 hrs by Annexin V-FITC/PI staining based flow cytometry analysis (reference value: 0.38%). As to conditions: dose 4 µmol/L, at 4 µM. The class given is functional.
Assay [22] relates to H69AR. Put plainly: Induction of apoptosis in human NCI-H69AR cells assessed as live cells at 4 micromol/L measured after 48 hrs by Annexin V-FITC/PI staining based flow cytometry analysis (reference value: 97.7%). The class given is functional. As to conditions: dose 4 µmol/L, at 4 µM.
The test system of assay [23] is H69AR. Put plainly: Induction of apoptosis in human NCI-H69AR cells assessed as increase in cleaved PARP protein expression by Western blot analysis. As to conditions: dose 0.5-8 µmol/L. In kind it is functional, cell-based.
Assay [24] has as its system H69AR. In words: Induction of apoptosis in human NCI-H69AR cells assessed as live cells at 2 micromol/L measured after 48 hrs by Annexin V-FITC/PI staining based flow cytometry analysis (reference value: 97.7%). The class given is functional. As to conditions: dose 2 µmol/L, at 2 µM.

`Cc1cc(C(=O)c2ccc(C(F)(F)F)cc2)c(O)c(Cc2[nH]c3ccccc3c2Cc2c(O)c(C)cc(C(=O)c3ccc(C(F)(F)F)cc3)c2O)c1O`: in assay [1], the 50% inhibitory concentration (IC50) came out at 4.02 µM.
On the same count and under the same terms, to `Cc1cc(C(=O)c2ccccc2F)c(O)c(Cc2[nH]c3ccccc3c2Cc2c(O)c(C)cc(C(=O)c3ccccc3F)c2O)c1O` belongs 5.34 µM; to `COc1ccc(C(=O)c2cc(C)c(O)c(Cc3[nH]c4ccccc4c3Cc3c(O)c(C)cc(C(=O)c4ccc(OC)cc4)c3O)c2O)cc1`, 3.36 µM.
Still for that read-out and setting: to `Cc1cc(C(=O)c2ccc(F)cc2)c(O)c(Cc2[nH]c3ccccc3c2Cc2c(O)c(C)cc(C(=O)c3ccc(F)cc3)c2O)c1O` belongs 2.21 µM; to `CCc1cc(C(C)=O)c(O)c(Cc2[nH]c3ccccc3c2Cc2c(O)c(CC)cc(C(C)=O)c2O)c1O`, over 50 µM; to `CC(=O)c1cc(C)c(O)c(Cc2[nH]c3ccccc3c2Cc2c(O)c(C)cc(C(C)=O)c2O)c1O`, 42.5 µM.
Still for that read-out and setting: to `Cc1cc(C(=O)CC(C)C)c(O)c(Cc2[nH]c3ccccc3c2Cc2c(O)c(C)cc(C(=O)CC(C)C)c2O)c1O` belongs over 50 µM; to `Cc1cc(C(=O)c2cccc(Br)c2)c(O)c(Cc2[nH]c3ccccc3c2Cc2c(O)c(C)cc(C(=O)c3cccc(Br)c3)c2O)c1O`, 1.86 µM; to `Cc1ccccc1C(=O)c1cc(C)c(O)c(Cc2[nH]c3ccccc3c2Cc2c(O)c(C)cc(C(=O)c3ccccc3C)c2O)c1O`, 3.17 µM.
In turn, `Cc1cc(C(=O)c2ccccc2Cl)c(O)c(Cc2[nH]c3ccccc3c2Cc2c(O)c(C)cc(C(=O)c3ccccc3Cl)c2O)c1O` yielded an IC50 in assay [1] of 5.97 µM. Against the preceding compound, the IC50 is about 1.9-fold higher.
Still for that read-out and setting: to `CCC(=O)c1cc(C)c(O)c(Cc2[nH]c3ccccc3c2Cc2c(O)c(C)cc(C(=O)CC)c2O)c1O` belongs over 50 µM; to `Cc1cc(C(=O)c2ccccc2Br)c(O)c(Cc2[nH]c3ccccc3c2Cc2c(O)c(C)cc(C(=O)c3ccccc3Br)c2O)c1O`, 7 µM.
In turn, `Cc1cc(C(=O)c2cccc(Cl)c2)c(O)c(Cc2[nH]c3ccccc3c2Cc2c(O)c(C)cc(C(=O)c3cccc(Cl)c3)c2O)c1O` returned an IC50 in assay [1] of 2.81 µM.
Same read-out and setting: to `COc1cccc(C(=O)c2cc(C)c(O)c(Cc3[nH]c4ccccc4c3Cc3c(O)c(C)cc(C(=O)c4cccc(OC)c4)c3O)c2O)c1` belongs 4.25 µM.
Same read-out and setting: to `Cc1cc(C(=O)c2ccccc2)c(O)c(Cc2[nH]c3ccccc3c2Cc2c(O)c(C)cc(C(=O)c3ccccc3)c2O)c1O` belongs 7.58 µM; to `Cc1cc(C(=O)c2ccc(Cl)cc2)c(O)c(Cc2[nH]c3ccccc3c2Cc2c(O)c(C)cc(C(=O)c3ccc(Cl)cc3)c2O)c1O`, 1.64 µM.
On the same count and under the same terms, to `Cc1cc(C(=O)c2ccc(CCl)cc2)c(O)c(Cc2[nH]c3ccccc3c2Cc2c(O)c(C)cc(C(=O)c3ccc(CCl)cc3)c2O)c1O` belongs 13.2 µM; to `Cc1cc(C(=O)c2ccc(Cl)cc2Cl)c(O)c(Cc2[nH]c3ccccc3c2Cc2c(O)c(C)cc(C(=O)c3ccc(Cl)cc3Cl)c2O)c1O`, 4 µM; to `Cc1cccc(C(=O)c2cc(C)c(O)c(Cc3[nH]c4ccccc4c3Cc3c(O)c(C)cc(C(=O)c4cccc(C)c4)c3O)c2O)c1`, 4.78 µM.
As to `Cc1cc(C(=O)c2ccc(Br)cc2)c(O)c(Cc2[nH]c3ccccc3c2Cc2c(O)c(C)cc(C(=O)c3ccc(Br)cc3)c2O)c1O`, the Activity entry in [2] is “Dose-Dependent Effect”; in assay [3], 0.46%; in assay [5], “Dose-Dependent Effect”; in [6] it was “Dose-Dependent Effect”; in assay [7], 2.24%; in assay [8] it was “Dose-Dependent Effect”. Moreover, the Activity in assay [9] was 0.057%; in assay [10] it was 4.85%; in assay [12], “Dose-Dependent Effect”; in [14], 28.5%; in assay [16] it was 0.01%; in assay [17], 62.8%. Besides, the Activity in assay [18] was 11.3%; in assay [19] it was 8.22%; in assay [21], 5.7%; in [22], 82.9%; in [23], “Dose-Dependent Effect”; in [24] it was 92.9%. Further, in assay [4], the inhibition result is “Dose-Dependent Effect”. The result in assay [11] was Active. The inhibition at 8 µM in [13] came out at 100%. The concentration for half-maximal inhibition (IC50) in assay [15] was determined as 21.2 µM; in assay [1], 1.58 µM; in assay [20], 35.8 µM.
In assay [1], `Cc1ccc(C(=O)c2cc(C)c(O)c(Cc3[nH]c4ccccc4c3Cc3c(O)c(C)cc(C(=O)c4ccc(C)cc4)c3O)c2O)cc1` returned an IC50 of 3.41 µM. That is a single-digit micromolar value.
`Cc1cc(C(=O)c2cccc(F)c2)c(O)c(Cc2[nH]c3ccccc3c2Cc2c(O)c(C)cc(C(=O)c3cccc(F)c3)c2O)c1O` yielded an IC50 in assay [1] of 1.94 µM. Against the preceding compound, the IC50 is about 1.8-fold lower.
On the same count and under the same terms, to `Cc1cc(C(=O)c2ccc3ccccc3c2)c(O)c(Cc2[nH]c3ccccc3c2Cc2c(O)c(C)cc(C(=O)c3ccc4ccccc4c3)c2O)c1O` belongs 41.5 µM.
